Earlier results, collected in patent US20140038836A1, “Novel Pharmacogene Single Nucleotide Polymorphisms and Methods of Detecting Same” (priority 2012, published 2014).
Read-outs that look alike come from different tables or passages of the source. Values belong to the molecule of their own block, whether it stands above or below them.

Tests used:
[1] = target: T1, ADRA2A (alpha2A subtype alpha-2-adrenergic receptor) (Homo sapiens, UniProt P08913); details: for rank order for antagonists: antagonists of the alpha2A receptor; for rank order of potency for agonists: agonists of the alpha2A receptor
T1 sequence (P08913 1-465): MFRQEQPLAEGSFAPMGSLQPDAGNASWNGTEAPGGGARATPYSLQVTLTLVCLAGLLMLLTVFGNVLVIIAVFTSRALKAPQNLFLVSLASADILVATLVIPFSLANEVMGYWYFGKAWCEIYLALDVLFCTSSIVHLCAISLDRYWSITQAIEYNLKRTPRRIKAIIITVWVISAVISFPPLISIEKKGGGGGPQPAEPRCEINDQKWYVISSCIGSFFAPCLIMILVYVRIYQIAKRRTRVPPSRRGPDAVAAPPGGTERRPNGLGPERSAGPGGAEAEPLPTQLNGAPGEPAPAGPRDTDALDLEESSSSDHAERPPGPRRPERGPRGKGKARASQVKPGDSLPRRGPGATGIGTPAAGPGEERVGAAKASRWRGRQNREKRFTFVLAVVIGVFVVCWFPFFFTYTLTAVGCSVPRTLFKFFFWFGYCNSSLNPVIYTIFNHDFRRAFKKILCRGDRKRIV

[2] = test system: psychotic Caucasian patients; details: 3435CC or 2677GG genotypes versus heterozygous or TT carriers
[3] = homozygote ABCB1 3435TT carriers
[4] = test system: patients of Asian ethnicity with Major Depressive Disorder; details: carriers of 3435TT (rs1045642) genotype, p=0.001
[5] = test system: Caucasian patients with major depression; details: ABCB1 3435TT allele; P=0.042, 95% CI 1.01-1.86
[6] = test system: patients with schizophrenia; details: (T) allele of rs3813929
[7] = test system: Japanese major depression sample; details: 3435TT genotype (p=0.0008), haplotype block 3435C-2677G-1236T, 6 weeks
[8] = test system: schizophrenic Chinese patients from Shanghai; details: 230-bp allele of (GT)n repeat or 230-bp/C-270/rs6265G haplotype versus other alleles or haplotypes
[9] = test system: patients diagnosed with generalized anxiety disorder; details: carriers of HTR2A rs7997012 G-allele

SMILES: C=CCc1ccccc1OCC(O)CNC(C)C (stereo not shown) [alprenolol]
rank order for antagonists [1]: yohimbine>phentolamine=mianserine>chlorpromazine=spiperone=prazosin>propanolol>alprenolol=pindolol

P-gp substrate property (P-gp): substrates of P-gp
SMILES: CN(C)CCC=C1c2ccccc2CCc2ccccc21 [amitriptyline]

SMILES: CN(C)CCCN1c2ccccc2Sc2ccc(Cl)cc21 [chlorpromazine]
rank order for antagonists [1]: yohimbine>phentolamine=mianserine>chlorpromazine=spiperone=prazosin>propanolol>alprenolol=pindolol

P-gp substrate property (P-gp): substrates of P-gp
SMILES: CN(C)CCCC1(c2ccc(F)cc2)OCc2cc(C#N)ccc21 (stereo not shown) [citalopram]

SMILES: Clc1cccc(Cl)c1N=C1NCCN1 [clonidine]
rank order of potency for agonists [1]: oxymetazoline>clonidine>epinephrine>norepinephrine>phenylephrine>dopamine>p-synephrine>p-tyramine>serotonin=p-octopamine

dose-normalized clozapine levels [2]: significantly lower
SMILES: CN1CCN(C2=Nc3cc(Cl)ccc3Nc3ccccc32)CC1 [clozapine]

digoxin plasma levels after oral administration [3]: increased
SMILES: C[C@H]1O[C@@H](O[C@H]2[C@@H](O)C[C@H](O[C@H]3[C@@H](O)C[C@H](O[C@H]4CC[C@@]5(C)[C@H](CC[C@@H]6[C@@H]5C[C@@H](O)[C@]5(C)[C@@H](C7=CC(=O)OC7)CC[C@]65O)C4)O[C@@H]3C)O[C@@H]2C)C[C@H](O)[C@@H]1O [digoxin]

SMILES: CNC[C@H](O)c1ccc(O)c(O)c1 [epinephrine]
rank order of potency for agonists [1]: oxymetazoline>clonidine>epinephrine>norepinephrine>phenylephrine>dopamine>p-synephrine>p-tyramine>serotonin=p-octopamine

SMILES: CN(C)CCC[C@@]1(c2ccc(F)cc2)OCc2cc(C#N)ccc21 [escitalopram]
remission on the antidepressant [4]: slower remission

SMILES: CN1CCN2c3ccccc3Cc3ccccc3C2C1 (stereo not shown) [mianserine]
rank order for antagonists [1]: yohimbine>phentolamine=mianserine>chlorpromazine=spiperone=prazosin>propanolol>alprenolol=pindolol

P-gp substrate property (P-gp): not substrates of P-gp
SMILES: CN1CCN2c3ncccc3Cc3ccccc3C2C1 (stereo not shown) [mirtazapine]

SMILES: NC[C@H](O)c1ccc(O)c(O)c1 [norepinephrine]
rank order of potency for agonists [1]: oxymetazoline>clonidine>epinephrine>norepinephrine>phenylephrine>dopamine>p-synephrine>p-tyramine>serotonin=p-octopamine

SMILES: CNCCC=C1c2ccccc2CCc2ccccc21 [nortriptyline]
OR for nortriptyline-induced postural hypotension [5]: 1.37

SMILES: Cc1cc2c(s1)Nc1ccccc1N=C2N1CCN(C)CC1 [olanzapine]
effect on weight gain [6]: protective effect against weight-gain

SMILES: Cc1cc(C(C)(C)C)c(O)c(C)c1CC1=NCCN1 [oxymetazoline]
rank order of potency for agonists [1]: oxymetazoline>clonidine>epinephrine>norepinephrine>phenylephrine>dopamine>p-synephrine>p-tyramine>serotonin=p-octopamine

SMILES: NCC(O)c1ccc(O)cc1 (stereo not shown) [p-octopamine]
rank order of potency for agonists [1]: oxymetazoline>clonidine>epinephrine>norepinephrine>phenylephrine>dopamine>p-synephrine>p-tyramine>serotonin=p-octopamine

SMILES: CNCC(O)c1ccc(O)cc1 (stereo not shown) [p-synephrine]
rank order of potency for agonists [1]: oxymetazoline>clonidine>epinephrine>norepinephrine>phenylephrine>dopamine>p-synephrine>p-tyramine>serotonin=p-octopamine

SMILES: NCCc1ccc(O)cc1 [p-tyramine]
rank order of potency for agonists [1]: oxymetazoline>clonidine>epinephrine>norepinephrine>phenylephrine>dopamine>p-synephrine>p-tyramine>serotonin=p-octopamine

P-gp substrate property (P-gp): substrates of P-gp
SMILES: Fc1ccc([C@@H]2CCNC[C@H]2COc2ccc3c(c2)OCO3)cc1 [paroxetine]
response to paroxetine [7]: poor response

SMILES: Cc1ccc(N(CC2=NCCN2)c2cccc(O)c2)cc1 [phentolamine]
rank order for antagonists [1]: yohimbine>phentolamine=mianserine>chlorpromazine=spiperone=prazosin>propanolol>alprenolol=pindolol

SMILES: CC(C)NCC(O)COc1cccc2[nH]ccc12 (stereo not shown) [pindolol]
rank order for antagonists [1]: yohimbine>phentolamine=mianserine>chlorpromazine=spiperone=prazosin>propanolol>alprenolol=pindolol

SMILES: Cc1nc2n(c(=O)c1CCN1CCC(c3noc4cc(F)ccc34)CC1)CCCC2 [risperidone]
AUC of risperidone (3435TT versus 3435CC subjects who were CYP2D6*10/*10, P=0.001): higher | metabolic ratios of risperidone (3435TT versus 3435CC with CYP2D6*10/*10, P=0.006): higher | AUC of risperidone (between ABCB1 3435C>T genotypes, healthy subjects (n=72), 2 mg): no significant differences | response to risperidone [8]: better response

SMILES: NCCc1c[nH]c2ccc(O)cc12 [serotonin]
rank order of potency for agonists [1]: oxymetazoline>clonidine>epinephrine>norepinephrine>phenylephrine>dopamine>p-synephrine>p-tyramine>serotonin=p-octopamine

SMILES: O=C(CCCN1CCC2(CC1)C(=O)NCN2c1ccccc1)c1ccc(F)cc1 [spiperone]
rank order for antagonists [1]: yohimbine>phentolamine=mianserine>chlorpromazine=spiperone=prazosin>propanolol>alprenolol=pindolol

SMILES: COc1ccc(C(CN(C)C)C2(O)CCCCC2)cc1 (stereo not shown) [venlafaxine XR]
treatment outcome over time [9]: better treatment outcome

SMILES: COc1ccc(C(CN(C)C)C2(O)CCCCC2)cc1 (stereo not shown) [venlafaxine]
P-gp substrate property (P-gp): substrates of P-gp

SMILES: COC(=O)[C@@H]1[C@H]2C[C@H]3c4[nH]c5ccccc5c4CCN3C[C@@H]2CC[C@@H]1O [yohimbine]
rank order for antagonists [1]: yohimbine>phentolamine=mianserine>chlorpromazine=spiperone=prazosin>propanolol>alprenolol=pindolol
